# Experimental data reported in patent US6034120A, “Insect antifeedant for agriculture” (Morita Kaguku Kogyo Co., Ltd., priority 1997, dated 2000).
# Entries after “also recorded” stand apart in the source; their conditions may differ.
# What was measured:
# [1] = tested on: Spodoptera litura FABRICIUS; test: antifeeding effect by the leaf disk method (antifeedant index); format: in vivo, Spodoptera litura FABRICIUS larvae, third or fourth instar; parameters: key to Antifeedant index (AFI): AFI = 100×T/(T+C); 50 = same as control, ≤30 = antifeeding; conditions: for Antifeedant index (AFI): 30 or less = antifeeding activity
# Experimental: A test for an antifeeding effect on insects was conducted by the leaf disk method. After wiping off the surface of a leaf of Ipomoea batatas with acetone in order to remove extraneous matter on the leaf, a disk having a diameter of 2 cm was cut out with a cork borer, avoiding the veins of the leaf. An acetone solution containing the predetermined amount of samples was applied to the disk, which was sufficiently air-dried. As a control, the same amount of acetone solution was used, and applied to the leaf disk in the same manner as in the sample. Two pieces each of the sample and the control were placed crosswise in a petri dish, and 15 larvae of Spodoptera litura FABRICIUS were set in the petri dish to put on the lid. The Spodoptera litura FABRICIUS used was the third or fourth instar. This is because the younger the larvae, the greater the effect they receive due to allelochemical. The first or second instar larvae prefer to eat a tender portion of the leaf because they cannot eat hard veins or fiber of the leaf. On the other hand, the fifth or sixth instar larvae move the leafdisk because they are well-built. Further, the antifeeding effect due to allelochemical is lowered because they eat any portion of the leaf. Therefore, it is better not to use the fifth or sixth instar larvae.
# The petri dish was allowed to stand in a thermostatic chamber at 25 to 27° C. under light. Two to 5 hours later, 4 pieces of the leaf were taken out to convert them into black and white pictures with a photocopier. Using a scanner, the disk area was digitized, and then the disk area was expressed numerically at the pixel unit on a Mackintosh computer using a free soft NIH image.
# The method of calculating an antifeedant index (AFI) is as follows. First, a standard area of an intact leaf is calculated. The ratio of the area of the leaf consumed by the larvae to the standard area of the leaf was calculated.
# Antifeedant index=100×T/(T+C)
# T: Total percentage of treated disk consumed
# C: Total percentage of control disk consumed
# If this index is 30 or less, the tested leaf has antifeeding activity. […] When the consumed area of the sample and that of the control is the same, the antifeedant index indicates 50.
# Concerning scabequinone, remirol, cyperaquinone and methylremirol, the AFI and FR were calculated according to the method for testing an antifeeding effect.
# [2] = tested on: Tyrophagus putrescentiae SCHRANK; test: dry film method in test tube, repelling of Tyrophagus putrescentiae; format: in vivo; conditions: 1 mg, 25° C., 1 day
# Experimental: To 1 mg of cyperaquinone was added acetone and the resulting solution was charged in a test tube (a diameter of 1 cm). Thereafter, the solution was treated by the dry film method. (The method is as follows: a solution was charged at the bottom of a test tube. After applying the solution to the wall of the test tube, the solvent was removed to leave a sample on the wall of the test tube.) Fifty Tyrophagus putrescentiae SCHRANK were set in the test tube. After growing them at 25° C. for 1 day, the confirmation was conducted with a stereomicroscope.
# plants = conditions: background statement; cited from earlier work
# [3] = tested on: Plutella maculipennis CURTIS; test: test for an insecticidal effect (contact application); format: in vivo, Plutella maculipennis CURTIS larvae, third instar; conditions: for LD50: acetone solution applied to third instar larvae, 24 hours, probit method; for insecticidal effect / LD50 comparison (in words): versus scabequinone
# Experimental: In order to test the insecticidal effect of remirol, methylremirol and scabequinone, acetone was added to each sample and the resulting acetone solution was applied to the third instar larvae of Plutella maculipennis CURTIS. Thereafter, Kaiwaredaikon (Raphanus sativus LINN, C.V. shijunichi) was fed to them as a feed and the number of survived larvae after 24 hours was counted. LD50 (lethal dose 50) was calculated by the probit method.
# [4] = 1 mg/leaf, 50 = no difference from control
Structure (SMILES),"Antifeedant index (AFI) [1, 4]",FR (consumed ratio of treated leaves) ([1]; 0.1 mg/leaf),FR (consumed ratio of treated leaves) ([1]; 0.25 mg/leaf),Antifeedant index (AFI) ([1]; 0.25 mg/leaf),FR (consumed ratio of treated leaves) ([1]; 1 mg/leaf),mortality (in words) [2],repelling effect (in words) [2],Antifeedant index (AFI) ([1]; 0.1 mg/leaf),anti-breeding effect on the plants (plants),LD50 [3] [mg],insecticidal effect / LD50 comparison (in words) [3],antifeeding effect (in words) ([1]; leaf disk method)
C=C(C)C1Cc2c(cc(OC)c(C(C)=O)c2OC)O1 (racemic) [racemic methylremirol],44.3,,,,,,,,,,,
"C=C(C)C1Cc2c(OC)cc(OC)cc2O1 (stereo not drawn) [2-isopopenyl-4,6-methoxy-coumaran, 2-isopropenyl-4,6-methoxycoumaran]",26.1,,,,,,,,,,,
C=C(C)c1cc2c(o1)C(=O)c1occ(C)c1C2=O [cyperaquinone],20.98,16.18,13.92,26.03,9.98,Some of the Tyrophagus putrescentiae SCHRANK were dead,had a repelling effect on Tyrophagus putrescentiae SCHRANK,,,,,
"O=C1C=CC(=O)c2c(O)cccc21 [juglone, reference compound]",0,0,0,0,0,,,0,strong anti-breedingeffect on the plants,,,
C=C(C)C1Cc2c(cc(OC)c(C(C)=O)c2OC)O1 (stereo not drawn) [methylremirol],0,,,,,,,,,1.0,superior to scabequinone in the insecticidal effect,
"O=c1c(O)c(-c2ccc(O)c(O)c2)oc2cc(O)cc(O)c12 [quercetin, reference compound]",2.07,15.96,13.07,25.08,0.66,,,25.04,,,,
C=C(C)C1Cc2c(cc(OC)c(C(C)=O)c2O)O1 (stereo not drawn) [remirol],8.57,11.33,10.31,19.02,3.84,,,,,0.125,superior to scabequinone in the insecticidal effect,
Cc1coc2c1C(=O)C1=C(OCC(C(C)C)C1)C2=O (stereo not drawn) [scabequinone],0,1.61,0.47,2.16,,,,4.22,,1.371,,did quite well in the antifeeding effect; also recorded: by far superior to another commercially available product quercetin
